According to US20240425491A1, “HETEROARYL COMPOUNDS USEFUL IN THE TREATMENT OF COGNITIVE DISORDERS” (University College Cardiff Consultants Limited, priority 2021, published 2024):
Where a name gives a salt, the structure may show the parent alone.

Assays:
[1] = target: T1, human recombinant GABAAR containing α5β3γ2 subunits (benzodiazepine site) (Homo sapiens, UniProt P18507+P31644); experiment: In vitro radioligand binding assay (α5-GABAAR Ki); conditions: inhibition of [3H]Ro15-1788 binding, membranes of L(tk−) cells expressing human α5β3γ2; read-out: α5-GABAAR Ki
T1 construct: expressed in transfected cells; host or cells: mouse L(tk−) cells, dexamethasone-inducible vector pMSGneo
Procedure, shortened: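 Displacement of 4 nM [^3H]flumazenil from the benzodiazepine site, read by filtration and scintillation, gave IC50, converted to Ki (Cheng-Prusoff, saturation-derived Kd). Receptor: human α5β3γ2 membranes from L(tk^−) cells, 50 μg protein/well; 1 h, 4° C; TP003 1 μM defined nonspecific binding.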

[2] = target: T2, human α5β3γ2L GABAA receptors in HEK293 cells (Homo sapiens, UniProt P18507+P31644); experiment: In vitro electrophysiological recording assay (α5-GABAAR relative efficacy), SyncroPatch; type: cell-based; conditions: GABA EC10-20
T2 construct: expressed in transfected cells
Description: Mouse L(tk^−) cells stably expressing human α1β3γ2, α2β3γ2, α3β3γ2, α5β3γ2 GABAARs generated by transfection of the individual subunits in the dexamethasone-inducible expression vector pMSGneo in mouse L(tk^−) cells (Hadingham et al., 1993, Mol. Pharmacol. 43:970-975 and 1993, Mol. Pharmacol. 44:1211-1218) were used for binding and functional assays. For certain compounds, HEK293 cells stable expressing the human α1β3γ2L, α2β3γ2L, α3β3γ2L and α5β3γ2L GABAA receptors were used to evaluate their functional effects in a SyncroPatch electrophysiology assay.
The efficacy of modulators was evaluated using either the automated patch-clamp platform QPatch16 (Sophion, Copenhagen, Denmark) or the SyncroPatch 384i (Nanion Technologies, Germany). Cells were harvested from flasks by enzymatic dissociation and re-suspended in serum-free medium.
For the Syncropatch recordings, a stacked addition protocol was used, in which GABA was rapidly applied and then washed off from the cell. All experiments were carried out at room temperature (20-22° C.) using a standard whole cell procedure. The currents recorded were acquired at 2 kHz and filtered using a Bessel filter. Whole-cell currents were measured at a holding potential of −80 mV.
For Syncropatch recordings, the extracellular recording solution contained: 140 mM NaCl, 4 mM KCl, 2 mM CaCl2), 1 mM MgCl2, 10 mM HEPES, 5 mM glucose (pH 7.4 and osmolarity of c. 300-310 mOsm/L). The intracellular recording solution contained: 90 mM KCl, 50 mM KF, 1.5 mM MgCl2, 11.1 mM EGTA and 10 mM HEPES (pH 7.2 and osmolarity of c. 300 mOsm/L). 2 mM of NaATP was added to the intracellular solution on the day of testing.
The effects of modulators were evaluated in the presence of a submaximal GABA concentration, giving typically 10-20% activation (GABA EC10-20) of the response elicited by a saturating GABA concentration. For QPatch recordings, to check and ensure baseline current stability before compound addition, five consecutive applications of GABA EC10-20 alone (each application with a 2 s duration, separated by minimum 1 min wash off periods) were performed before compound addition. The test compound was applied using the pipetting system of the QPatch system 1 min at least prior to co-application with GABA EC10-20. For SyncroPatch recordings, GABA EC20 alone was applied three times (1 s long applications, with wash steps in-between) before compound addition. This was followed by a 1-2 min pre-incubation with the test compound and then re-application of GABA EC10-20 in the presence of the compound. Finally, following a further wash step, a saturating concentration of GABA was applied, allowing the accurate evaluation for each cell of the percentage baseline activation elicited by the submaximal GABA applied.
The compounds were first dissolved in DMSO as a 10 mM stock and then further diluted to the testing concentrations so that the final DMSO concentration in the extracellular recording solution was kept constant at 0.1% for the QPatch recordings, or 0.2% for the SyncroPatch recordings.
The % efficacy of modulators was determined from the GABA elicited currents recorded in the presence and absence of the test compound, using the formula:
[((compound peak current−leak)−(GABA peak current−leak))/(GABA peak current−leak)]*100,
where ‘leak’ is the leak baseline current at −65 mV, ‘compound peak current’ is the current elicited by co-application of compound and GABA, and ‘GABA peak current’ is the current elicited by GABA alone during the 5th GABA application. The results were presented as ‘relative efficacy’ for each compound generally at a concentration equal or higher than 100 times their determined Ki. The relative efficacy of a compound was calculated by normalising its efficacy to the efficacy of methyl-6,7-dimethoxy-4-ethyl-beta-carboline-3-carboxylate (DMCM) that was separately determined produced an attenuation of GABA-induced currents of −57±4%, n=5.

[3] = target: T3, human α5β3γ2 GABAARs in mouse L(tk−) cells (Homo sapiens, UniProt P18507+P31644); experiment: In vitro electrophysiological recording assay (α5-GABAAR relative efficacy), QPatch; type: cell-based; conditions: GABA EC10-20
T3 construct: expressed in transfected cells; host or cells: mouse L(tk−) cells, dexamethasone-inducible vector pMSGneo
Procedure, shortened: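 Whole-cell QPatch recordings at 20-22° C, −65 mV holding, in dexamethasone-induced (1 μM, 24 h) L(tk−) cells. Compound pre-applied ≥1 min, then co-applied with GABA EC10-20; percentage change in leak-corrected peak current, taken at ≥100× Ki, normalised to DMCM efficacy; 0.1% DMSO final.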

T2 sequence (P31644 32-462): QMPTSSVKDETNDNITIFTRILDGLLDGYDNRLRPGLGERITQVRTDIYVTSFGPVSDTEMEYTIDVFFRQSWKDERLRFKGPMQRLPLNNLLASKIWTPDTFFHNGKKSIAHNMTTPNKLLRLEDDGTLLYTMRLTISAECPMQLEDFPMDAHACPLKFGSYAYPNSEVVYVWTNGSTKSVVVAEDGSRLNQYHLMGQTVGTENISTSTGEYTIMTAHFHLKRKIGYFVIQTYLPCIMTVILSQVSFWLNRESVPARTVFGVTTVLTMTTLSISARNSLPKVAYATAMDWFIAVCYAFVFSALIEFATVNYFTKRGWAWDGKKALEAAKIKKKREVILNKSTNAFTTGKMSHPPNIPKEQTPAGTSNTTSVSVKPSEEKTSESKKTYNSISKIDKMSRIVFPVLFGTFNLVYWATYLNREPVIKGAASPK
T2 sequence (P28472 26-473 partner): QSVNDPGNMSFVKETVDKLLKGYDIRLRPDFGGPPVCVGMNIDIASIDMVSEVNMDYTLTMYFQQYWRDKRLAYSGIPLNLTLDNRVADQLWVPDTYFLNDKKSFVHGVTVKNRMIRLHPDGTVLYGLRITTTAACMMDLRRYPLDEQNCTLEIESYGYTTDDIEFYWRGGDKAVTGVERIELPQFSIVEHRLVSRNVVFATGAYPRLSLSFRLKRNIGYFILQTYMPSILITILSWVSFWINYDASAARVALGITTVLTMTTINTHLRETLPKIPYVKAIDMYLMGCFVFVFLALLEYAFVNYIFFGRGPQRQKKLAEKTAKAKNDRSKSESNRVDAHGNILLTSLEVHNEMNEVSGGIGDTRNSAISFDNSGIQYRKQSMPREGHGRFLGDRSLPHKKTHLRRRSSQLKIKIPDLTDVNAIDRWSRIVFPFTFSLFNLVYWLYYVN
T2 sequence (P18507 40-475): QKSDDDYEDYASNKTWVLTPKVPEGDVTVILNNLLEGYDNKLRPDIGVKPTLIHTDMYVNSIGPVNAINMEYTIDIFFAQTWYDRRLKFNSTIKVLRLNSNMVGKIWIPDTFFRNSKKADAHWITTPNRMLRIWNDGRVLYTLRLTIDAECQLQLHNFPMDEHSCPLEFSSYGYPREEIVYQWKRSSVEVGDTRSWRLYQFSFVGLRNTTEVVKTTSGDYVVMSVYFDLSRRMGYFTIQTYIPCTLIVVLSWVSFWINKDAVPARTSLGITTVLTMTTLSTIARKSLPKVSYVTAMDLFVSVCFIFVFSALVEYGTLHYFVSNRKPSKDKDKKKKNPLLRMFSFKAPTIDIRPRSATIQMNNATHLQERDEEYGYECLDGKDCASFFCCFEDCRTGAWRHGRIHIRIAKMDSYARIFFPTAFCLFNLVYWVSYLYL
T3 sequence (P31644 32-462): as the sequence (P31644 32-462) above
T3 sequence (P28472 26-473 partner): as the sequence (P28472 26-473 partner) above
T3 sequence (P18507 40-475): as the sequence (P18507 40-475) above
T1 sequence (P31644 32-462): as the sequence (P31644 32-462) above
T1 sequence (P28472 26-473 partner): as the sequence (P28472 26-473 partner) above
T1 sequence (P18507 40-475): as the sequence (P18507 40-475) above

Row | SMILES | Ki [1] | α5-GABAAR Relative Efficacy (to DMCM), SyncroPatch ([2]; Conc 0.1 μM) | also measured
1 | COc1nc(-c2cnc(CN3CCOCC3)nc2)ccc1NC(=O)c1c(-c2ccccc2)noc1C [Example 181, N-[2-Methoxy-6-[2-(morpholinomethyl)pyrimidin-5-yl]-3-pyridyl]-5-methyl-3-phenyl-isoxazole-4-carboxamide] | 1.9 nM | −1.05 | –
2 | COc1nc(-c2cnc(CN)nc2)ccc1NC(=O)c1c(-c2ccc(F)cc2)nnn1C.Cl [Example 184, N-(6-(2-(Aminomethyl)pyrimidin-5-yl)-2-methoxypyridin-3-yl)-4-(4-fluorophenyl)-1-methyl-1H-1,2,3-triazole-5-carboxamide hydrochloride] | 1.5 nM | – | α5-GABAAR Relative Efficacy (to DMCM), Qpatch ([3]; Conc 0.3 μM): −0.45
3 | COc1nc(-c2ncn3c2CN(C)CC3)ccc1NC(=O)c1c(-c2ccccc2)noc1C [Example 186, N-(2-Methoxy-6-(7-methyl-5,6,7,8-tetrahydroimidazol[1,5-a]pyrazin-1-yl)pyridin-3-yl)-5-methyl-3-phenylisoxazole-4-carboxamide] | 17.5 nM | – | α5-GABAAR Relative Efficacy (to DMCM), Qpatch ([3]; Conc 3 μM): −0.69
4 | COc1nc(-c2ncn3c2CNCC3)ccc1NC(=O)c1c(-c2ccccc2)noc1C [Example 187, N-(2-Methoxy-6-(5,6,7,8-tetrahydroimidazo[1,5-a]pyrazin-1-yl)pyridin-3-yl)-5-methyl-3-phenylisoxazole-4-carboxamide dihydrochloride] | 23.5 nM | – | α5-GABAAR Relative Efficacy (to DMCM), Qpatch ([3]; Conc 3 μM): −0.46
5 | COc1nc(-c2cnc(NC3CNC3)nc2)ccc1NC(=O)c1c(-c2ccccc2)noc1C [Example 188, N-[6-[2-(Azetidin-3-ylamino)pyrimidin-5-yl]-2-methoxy-3-pyridyl]-5-methyl-3-phenyl-isoxazole-4-carboxamide] | 0.5 nM | – | α5-GABAAR Relative Efficacy (to DMCM), Qpatch ([3]; Conc 0.1 μM): −1.08
6 | COc1nc(-c2cn(CCN)cn2)ccc1NC(=O)c1c(-c2ccccc2)noc1C [Example 200, N-(6-(1-(2-Aminoethyl)-1H-imidazol-4-yl)-2-methoxypyridin-3-yl)-5-methyl-3-phenylisoxazole-4-carboxamide dihydrochloride] | 16.8 nM | – | α5-GABAAR Relative Efficacy (to DMCM), Qpatch ([3]; Conc 3 μM): −0.53
7 | Cc1onc(-c2ccc(F)cc2)c1C(=O)Nc1ccc(-n2ccnc2)nc1OC(C)C [Example 204, 3-(4-Fluorophenyl)-N-(6-imidazol-1-yl-2-isopropoxy-3-pyridyl)-5-methyl-isoxazole-4-carboxamide] | 1.1 nM | – | α5-GABAAR Relative Efficacy (to DMCM), Qpatch ([3]; Conc 0.1 μM): −0.39
8 | Cc1onc(-c2ccc(F)cc2)c1C(=O)Nc1ccc(-c2cnc(CN)nc2)nc1OC(C)C.Cl [Example 205, N-(6-(2-(Aminomethyl)pyrimidin-5-yl)-2-isopropoxypyridin-3-yl)-3-(4-fluorophenyl)-5-methylisoxazole-4-carboxamide hydrochloride] | 0.4 nM | – | α5-GABAAR Relative Efficacy (to DMCM), Qpatch ([3]; Conc 0.1 μM): −0.61
9 | Cc1onc(-c2ccc(F)cc2)c1C(=O)Nc1ccc(-c2cnc3n2CCN(C)C3)nc1OC(C)C.Cl [Example 209, 3-(4-Fluorophenyl)-N-(2-isopropoxy-6-(7-methyl-5,6,7,8-tetrahydroimidazo[1,2-a]pyrazin-3-yl)pyridin-3-yl)-5-methylisoxazole-4-carboxamide hydrochloride] | 0.3 nM | −0.60 | –
10 | COc1nc(-c2cnc(N)nc2)ccc1NC(=O)c1c(-c2ccc(F)cc2)noc1C [Example 213, N-[6-(2-Aminopyrimidin-5-yl)-2-methoxy-3-pyridyl]-3-(4-fluorophenyl)-5-methyl-isoxazole-4-carboxamide] | 0.4 nM | −0.85 | –
11 | Cc1onc(-c2ccccc2)c1C(=O)Nc1ccc(-c2cnc(N)nc2)nc1OC(C)C [Example 214, N-[6-(2-Aminopyrimidin-5-yl)-2-isopropoxy-3-pyridyl]-5-methyl-3-phenyl-isoxazole-4-carboxamide] | 0.4 nM | −0.81 | –
12 | Cc1onc(-c2ccccc2)c1C(=O)Nc1ccc(-c2ccc(N)nc2)nc1OC(C)C [Example 215, N-[6-(6-Amino-3-pyridyl)-2-isopropoxy-3-pyridyl]-5-methyl-3-phenyl-isoxazole-4-carboxamide] | 0.6 nM | −0.65 | –
13 | Cc1onc(-c2ccc(F)cc2)c1C(=O)Nc1ccc(-c2cnc(N)nc2)nc1OC1COC1 [Example 216, N-[6-(2-Aminopyrimidin-5-yl)-2-(oxetan-3-yloxy)-3-pyridyl]-3-(4-fluorophenyl)-5-methyl-isoxazole-4-carboxamide] | 1.5 nM | −0.67 | –
14 | COCCOc1nc(-c2cnc(N)nc2)ccc1NC(=O)c1c(-c2ccc(F)cc2)noc1C [Example 217, N-[6-(2-Aminopyrimidin-5-yl)-2-(2-methoxyethoxy)-3-pyridyl]-3-(4-fluorophenyl)-5-methyl-isoxazole-4-carboxamide] | 6.4 nM | −0.16 | –
15 | Cc1onc(-c2ccc(F)cc2)c1C(=O)Nc1ccc(-c2cnc(N)nc2)nc1OCCO [Example 218, N-[6-(2-Aminopyrimidin-5-yl)-2-(2-hydroxyethoxy)-3-pyridyl]-3-(4-fluorophenyl)-5-methyl-isoxazole-4-carboxamide] | 19.5 nM | −0.51 | –
16 | COc1nc(-c2ccc(CO)cc2)ccc1NC(=O)c1c(-c2ccccc2)noc1C [Example 219, N-[6-[4-(hydroxymethyl)phenyl]-2-methoxy-3-pyridyl]-5-methyl-3-phenyl-isoxazole-4-carboxamide] | 4.4 nM | – | α5-GABAAR Relative Efficacy (to DMCM), SyncroPatch ([2]; Conc 0.03 μM): −0.45
17 | COc1nc(-c2cnoc2)ccc1NC(=O)c1c(-c2ccc(F)cc2)noc1C [Example 221, 3-(4-fluorophenyl)-N-(6-(isoxazol-4-yl)-2-methoxypyridin-3-yl)-5-methylisoxazole-4-carboxamide] | 0.8 nM | −1.15 | –
18 | COc1nc(-c2ccc(N)nc2)ccc1NC(=O)c1c(-c2ccc(F)cc2)noc1C [Example 222, N-(6′-amino-6-methoxy-[2,3′-bipyridin]-5-yl)-3-(4-fluorophenyl)-5-methylisoxazole-4-carboxamide] | 0.5 nM | −0.78 | –
19 | COc1nc(-c2cnc(N)nc2)ncc1NC(=O)c1c(-c2ccccc2)noc1C [Example 223, N-(2′-amino-4-methoxy-[2,5′-bipyrimidin]-5-yl)-5-methyl-3-phenylisoxazole-4-carboxamide] | 1.3 nM | −1.06 | –
